Measurements published in ChEMBL document CHEMBL4340548, “Pyridone-containing phenalenone-based photosensitizer working both under light and in the dark for photodynamic therapy” (Bioorg Med Chem, 2019).
Calls of active or inactive are those of the source. No cut-off for these calls is given here.

Columns and labels:
[1] = Induction of singlet oxygen generation at 50 uM under irradiation incubated for 15 mins by 1H-NMR spectroscopy; type: functional
[2] = Photostability in acetonitrile assessed as PPN-EPO formation at 50 uM irradiated with light for 2.5 hrs by UV spectrophotometry
[3] = Induction of singlet oxygen generation in acetonitrile irradiated with blue light assessed as singlet oxygen quantum yield at 30 uM using ABDA by UV spectrophotometry; type: functional
[4] = Photostability in acetonitrile assessed as singlet oxygen formation by measuring pyridone moiety band at 50 uM at 37 degC irradiated with light for 2.5 hrs by UV spectrophotometry
[5] = test system: HeLa; test: Induction of ROS generation in human HeLa cells under dark condition at 1 uM incubated for 30 mins at 37 degC by DCFH-DA dye-based confocal microscopic analysis; type: cell-based; conditions: 0.5 h
[6] = test system: HeLa; test: Induction of ROS generation in human HeLa cells irradiated with blue light at 1 uM incubated for 30 mins by DCFH-DA dye-based confocal microscopic analysis; type: functional, cell-based
[7] = Induction of singlet oxygen generation at 50 uM under blue light irradiation at 25 degC by ABDA based singlet oxygen trap assay; type: functional
[8] = test system: HeLa; test: Induction of apoptosis in human HeLa cells at 1 uM incubated for 3 hrs irradiated with blue light by DAPI-Annexin V-PE staining based confocal microscopic analysis; type: functional, cell-based
[9] = test system: HeLa; test: Induction of apoptosis in human HeLa cells at 1 uM incubated for 3 hrs irradiated with blue light in presence of sodium azide by DAPI-Annexin V-PE staining based confocal microscopic analysis; type: functional, cell-based
[10] = Induction of singlet oxygen generation at 50 uM under irradiation at 20 degC for 5 mins and dark at 37 degC fro 30 mins for several cycles by ABDA based singlet oxygen trap assay; type: functional
[11] = test system: HeLa; test: Photodynamic cytotoxicity in human HeLa cells assessed as reduction in cell viability incubated in blue light for 5 mins every 1.5 hrs for 8 repeated cycles further incubation under dark for 24 hrs by MTT assay; type: functional; conditions: light or radiation study
[12] = Photostability in acetonitrile assessed as decrease in absorbance of pyridone moiety at 50 uM irradiated with light for 2.5 hrs by UV spectrophotometry
[13] = Induction of singlet oxygen generation at 50 uM under blue light irradiation at 60 degC by ABDA based singlet oxygen trap assay; type: functional
[14] = Induction of singlet oxygen generation in water irradiated with blue light assessed as singlet oxygen quantum yield at 30 uM using ABDA by UV spectrophotometry; type: functional
[15] = Induction of singlet oxygen generation at 50 uM under dark condition at 37 degC by ABDA based singlet oxygen trap assay; type: functional
[16] = test system: HeLa; test: Induction of ROS generation in human HeLa cells irradiated with blue light at 1 uM incubated for 30 mins in presence of sodium azide by DCFH-DA dye-based confocal microscopic analysis; type: functional, cell-based

Row | Structure (SMILES) | Activity [1] | Stability [2] | Activity [3] | Stability [4] | Activity [5] | Activity [6] | Activity [7] | Activity [8] | Activity [9] | Activity [10] | CC50 [11] | Stability [12] | Activity [13] | Activity [14] | Activity [15] | Activity [16]
1 | O=C1C(c2ccc(Cn3ccccc3=O)cc2)=Cc2cccc3cccc1c23 | Active | Unstable | 0.64 | Stable | Non-Toxic | Active | inactive | Active | inactive | Active | 26.5 nM | Unstable | Active | 0.12 | Active | Active
2 | O=C1C(c2ccc(CN3C(=O)C4C=CC3OO4)cc2)=Cc2cccc3cccc1c23 (centres undefined) | – | – | 0.71 | – | – | – | – | – | – | – | 71.5 nM | – | – | 0.16 | – | –
